Patent US20170290328A1, “COMPOSITIONS AND METHODS FOR APPLYING AGRICULTURAL PRODUCTS” (priority 2014, published 2017)

What was measured:
Marestail [1] = test: Additional field trial, Clarity + Roundup PowerMax with adjuvant formulations, weed control; format: in vivo, Conyza canadensis; details: Clarity tank mixed with Roundup PowerMax, Example 2
Method: Additional field trials were performed that compared Sharpen (active ingredient: saflufenacil ([2-chloro-4-fluoro-5-(3-methyl-2,6-dioxo-4-(trifluoromethyl)-3, 6-dihydro-1(2H)-pyrimidinyl)benzoyl]-N-isopropyl-N-methylsulfamide)) or Clarity (active ingredient: diglycolamine salt of 3,6-dichloro-o-anisic acid) to formulations described herein.

Marestail [2] = test: Roundup PowerMax Plus Sharpen Trials, weed control evaluation; format: in vivo
Method: (§1) Each treatment was comprised of a mixture of Roundup PowerMax (glyphosate potassium) at 11 oz/ac plus Sharpen (saflufenacil) diluted and applied at 10 gallons/acre spray volume. A-110 is a polymeric nonionic and alkyl and aryl ethoxylate blend emulsifier commercially available from Adjuvants Unlimited (Tulsa, Okla). Emulsifier “D” is a blend of polyoxyalkenes and ethoxylated castor oil and other components.
(§2) Trials were conducted in Indiana, North Dakota, and Ohio (1 location per state). Weed species varied by location but included glyphosate resistant marestail or kochia. Weed control (herbicide efficacy) evaluations were taken at approximately 7, 14, and 28 days after herbicides were applied.

kochia [3] = test: as above; format: in vivo; details: North Dakota, 10% methyl salicylate substituted for methylated soybean oil
Method: as §1, §2

Marestail [4] = test: Instigate Trials, weed control evaluation; format: in vivo
Method: (§3) Each treatment was comprised of Instigate applied at 3 oz product/ac, diluted and applied at 10 gallons/acre spray volume.
(§4) Trials were conducted in Indiana, North Dakota, and Ohio (1 location per state).
(§5) Weed species varied by location but included glyphosate resistant marestail or kochia. Weed control (herbicide efficacy) evaluations were taken at approximately 7, 14, and 28 days after herbicides were applied.

kochia [5] = test: Instigate Trials, weed control evaluation; format: in vivo; details: North Dakota, 27 days after treatment, with methylated soybean oil and AU-110 and F emulsifiers
Method: as §3, §4, §5

Marestail [6] = test: Paraquat Concentrate Trials, weed control evaluation; format: in vivo; details: Indiana; Paraquat Concentrate Trials (text prints Instigate)
Method: (§6) Each treatment was comprised of Paraquat Concentrate applied at 0.45 pt product/ac, diluted and applied at 10 gallons/acre spray volume.
as §4, §5

common lambsquarters = test: as above; format: in vivo; details: North Dakota; Paraquat Concentrate 0.45 pt product/ac
Method: as §6, §4, §5

wheat = test: as above; format: in vivo; details: North Dakota; Paraquat Concentrate 0.45 pt product/ac
Method: as §6, §4, §5

SMILES: COC(=O)c1ccccc1O [methyl salicylate]
- Change of control of glyphosate-resistant marestail (in words) (Marestail [1]): did not increase control
- marestail control (in words) (Marestail [2]; Indiana, Roundup PowerMax 11 oz/ac plus Sharpen): no increase in control
- marestail control (in words) (Marestail [2]; Ohio, Roundup PowerMax 11 oz/ac plus Sharpen): numerically greater
- marestail control (in words) (Marestail [2]; Ohio, Roundup PowerMax plus Sharpen, 14 days after treatment, with D emulsifier and F emulsifiers): greater
- kochia control (in words) (kochia [3]; with the AU-110 or F emulsifier): not
- kochia control (in words) (kochia [3]; with the D emulsifier): increased control
- marestail control (in words) (Marestail [4]; Indiana, Instigate 3 oz product/ac): did not increase marestail control
- marestail control (in words) (Marestail [4]; Ohio, Instigate, with methylated soybean oil and F emulsifier): increased marestail control
- kochia control (in words) (kochia [5]): numerically greater
- marestail control (in words) (Marestail [6]): did not increase marestail control
- common lambsquarters control (in words) (common lambsquarters): did not increase control
- wheat control (in words) (wheat): did not increase control
